Tests used:
L6 muscle cells = assay: Cell-Based GSK 3-β Assay (glycogen content of L6 muscle cells); settings: for 14C-Glucose Incorporation (dpm): L6 cells, 2 hours, 0.0 μM control Cpd 1 1640, Cpd 2 2078; for glycogen synthesis in L6 skeletal muscle cells: upon exposure to compound, result in words
Experimental: Glycogen content of L6 muscle cells was measured according to the method described in Berger and Hayes, Anal. Biochem., 1998, 261, 159-163.
Briefly, L6 cells were serum starved overnight in alpha-MEM containing 0.1%. On the following day, cells were washed three times with 300 μL KRPH buffer (150 mM NaCl, 5 mM KCl, 2.9 mM Na2HPO4, 1.25 mM MgSO4, 1.2 mM CaCl2, 10 mM HEPES, pH 7.4) and labeled with 200 μL alpha-MEM containing 5.5 mM ^14C-Glucose (0.1 μCi) in the presence of vehicle (DMSO) or compounds. After 2 hours, cells were washed three times with ice-cold PBS and glycogen was precipitated for 2 hours using ice-cold 66% EtOH. Precipitated glycogen was then washed three times with ice-cold 66% EtOH and ^14C-glycogen was quantified using a TopCount (Packard).
Compounds were tested in separate experiments at the dose levels shown. Where shown, the 0.0 μM dose was used as a control.

PKC α [1] = biological target: T1, PKC α (Homo sapiens, UniProt P17252); assay: Protein Kinase C Scintillation Proximity Assay (SPA), PKC-α; assay type: biochemical; set-up: purchased PanVera, Madison Wis; host or cells: baculovirus expression vector; settings: inhibition value, recombinant human isozyme, 1 μM ATP
Experimental: The binding activity of a compound for Protein Kinase C (PKC) was assessed using a homogeneous Scintillation Proximity Assay according to the procedure below.
The reaction was incubated for 15 min at 30° C. Reactions were terminated by the addition of streptavidin-coated SPA beads (Amersham) in a solution containing 1 mM EGTA, 10 mM EDTA and 100 μM ATP. Beads were allowed to settle overnight and the plates read in a Wallac MICROBETA scintillation counter (PerkinElmer Life sciences, Wellesley, Mass.).

PKC α [2] = biological target: T1, PKC α; assay: Biotinylated Peptide Substrate Assay, PKC α; assay type: biochemical; settings: 10 μM ATP; >10 = no 50% inhibition at highest dose tested
Experimental: Biotinylated peptide substrates were selected from the literature as appropriate for the enzyme being evaluated.
Assay conditions vary slightly for each protein kinase, for example, insulin receptor kinase requires 10 mM MnCl2 for activity and Calmodulin-dependent protein kinase requires calmodulin and 10 mM CaCl2. […] Enzyme was diluted in 50 mM Tris-HCl pH=8.0, 0.1% BSA and added to each well. The reaction was incubated for one hour at 30° C. in the presence of compound. After one hour the reaction mix was aspirated from the plate and the plate was washed with PBS containing 100 mM EDTA. The plate was read on a scintillation counter to determine ^33P-γ-ATP incorporated into the immobilized peptide. […] A maximum and minimum signal for the assay was determined on each plate.

Row | IC50 (PKC α [1]) [µM] | PKC α Kinase Assay (IC50 uM) (PKC α [2]) [µM] | SMILES | 14C-Glucose Incorporation (dpm) (L6 muscle cells; dose 1 μM) | 14C-Glucose Incorporation (dpm) (L6 muscle cells; dose 3 μM) | 14C-Glucose Incorporation (dpm) (L6 muscle cells; dose 10 μM) | glycogen synthesis in L6 skeletal muscle cells (L6 muscle cells)
1 |  |  | O=C1NC(=O)C2=C1c1cn(c3ncccc13)CCOCCOCCOCCn1cc2c2cccnc21 [Cpd 1] | 1898 | 1958 | 2426 | increased glycogen synthesis
2 |  |  | O=C1NC(=O)C2=C1c1cn(c3ncccc13)CCOCCOCCOCCOCCn1cc2c2cccnc21 [Cpd 2] | 2224 | 2518 | 2806 | increased glycogen synthesis
3 | 5.36 | >10 | O=C1NC(=O)C2=C1c1cn(c3ccccc13)CCOCCOCCn1cc2c2cccnc21 [Cpd 10] |  |  |  | 
4 | 1.21 | >10 | O=C1NC(=O)C2=C1c1cn(c3ccccc13)CCOCCOCCOCCn1cc2c2cccnc21 [Cpd 11] |  |  |  | 

From patent US6828327B2, “Macroheterocylic compounds useful as kinase inhibitors” (Ortho-McNeil Pharmaceutical, Inc., priority 2000, dated 2004)
